From ChEMBL document CHEMBL1201862, “PubChem BioAssay data set” (2004)
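Five concentrations, 48 hours, 96-well plates. Here, GI50 denotes the concentration required for 50% inhibition of growth.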 The source made the active and inactive calls. Rule as the data show it: active = GI50 up to about 1.1 µM and inactive = higher.

Assays:
Assay in all cases: NCI tumour cell line growth inhibition, 48 h
HCT-15 = tested on: HCT-15
UACC-257 = tested on: UACC-257
DU-145 = tested on: DU-145
K562 = tested on: K562
MOLT-4 = tested on: MOLT-4
KM12 = tested on: KM12
EKVX = tested on: EKVX
HL-60 = tested on: HL-60
NCI/ADR-RES = tested on: NCI/ADR-RES
SK-MEL-2 = tested on: SK-MEL-2
Hs-578T = tested on: Hs-578T
MDA-MB-435 = tested on: MDA-MB-435
OVCAR-8 = tested on: OVCAR-8
MDA-N = tested on: MDA-N
CAKI-1 = tested on: CAKI-1
786-0 = tested on: 786-0
UO-31 = tested on: UO-31
ACHN = tested on: ACHN
SK-MEL-28 = tested on: SK-MEL-28
TK-10 = tested on: TK-10

Compound	GI50 (HCT-15)	GI50 (UACC-257)	GI50 (DU-145)	GI50 (K562)	GI50 (MOLT-4)	GI50 (KM12)	GI50 (EKVX)	GI50 (HL-60)	GI50 (NCI/ADR-RES)	GI50 (SK-MEL-2)	GI50 (Hs-578T)	GI50 (MDA-MB-435)	GI50 (OVCAR-8)	GI50 (MDA-N)	GI50 (CAKI-1)	GI50 (786-0)	GI50 (UO-31)	GI50 (ACHN)	GI50 (SK-MEL-28)	GI50 (TK-10)
CCOC(=O)C(=O)C(CCC(=O)c1ccc2ccccc2c1O)C(=O)OCC (configuration not stated)	> 100 µM	> 100 µM (inactive)	> 100 µM (inactive)	> 100 µM (inactive)	> 100 µM (inactive)	> 100 µM (inactive)	> 100 µM (inactive)	> 100 µM (inactive)	> 100 µM (inactive)	> 100 µM (inactive)	> 100 µM (inactive)	> 100 µM (inactive)	> 100 µM (inactive)	> 100 µM (inactive)	> 100 µM (inactive)	> 100 µM (inactive)	> 100 µM (inactive)	> 100 µM (inactive)	> 100 µM (inactive)	–
COC(=O)C1(C(=O)OC)CC(=O)c2c(OC(=O)c3cccc(OC)c3C#N)ccc(OC(=O)c3cccc(OC)c3C#N)c2C1	> 100 µM	> 100 µM (inactive)	> 100 µM (inactive)	> 100 µM (inactive)	> 100 µM (inactive)	> 100 µM (inactive)	> 100 µM (inactive)	> 100 µM (inactive)	> 100 µM (inactive)	–	> 100 µM (inactive)	> 100 µM (inactive)	> 100 µM (inactive)	> 100 µM (inactive)	> 100 µM (inactive)	> 100 µM (inactive)	59.2 µM (inactive)	> 100 µM (inactive)	> 100 µM (inactive)	> 100 µM (inactive)
CC(=O)O[C@H]1C(=O)[C@@]2(C)[C@H]([C@H](OC(=O)c3cccc(C(F)(F)F)c3)[C@]3(O)C[C@H](OC(=O)[C@H](O)[C@@H](NC(=O)c4ccccc4)c4ccccc4)C(C)=C1C3(C)C)[C@]1(OC(C)=O)CO[C@@H]1C[C@@H]2O	0.268 µM	0.108 µM (active)	0.00857 µM (active)	< 0.0025 µM (active)	0.00427 µM (active)	< 0.0025 µM (active)	–	< 0.0025 µM (active)	1.4 µM (inactive)	–	< 0.0025 µM (active)	< 0.0025 µM (active)	0.00252 µM (active)	< 0.0025 µM (active)	0.906 µM (active)	0.00439 µM (active)	0.918 µM (active)	0.377 µM (active)	1.89 µM (inactive)	0.175 µM (active)
COC(=O)c1ccc2c(c1)CC1(C2)Cc2cc3c(c(C(=O)OC)c2C1)CCCC3 (configuration not stated)	67.8 µM	48.4 µM (inactive)	> 100 µM (inactive)	41.1 µM (inactive)	42.7 µM (inactive)	> 100 µM (inactive)	60 µM (inactive)	31.5 µM (inactive)	82.8 µM (inactive)	–	> 100 µM (inactive)	84.1 µM (inactive)	> 100 µM (inactive)	93.1 µM (inactive)	28.8 µM (inactive)	64.1 µM (inactive)	> 100 µM (inactive)	47.8 µM (inactive)	> 100 µM (inactive)	72.1 µM (inactive)
CCCCCCc1cc2cc(C(=O)NCc3ccccc3)c(=N)oc2cc1O	> 100 µM	> 100 µM (inactive)	> 100 µM (inactive)	> 100 µM (inactive)	> 100 µM (inactive)	> 100 µM (inactive)	> 100 µM (inactive)	> 100 µM (inactive)	> 100 µM (inactive)	> 100 µM (inactive)	> 100 µM (inactive)	> 100 µM (inactive)	> 100 µM (inactive)	> 100 µM (inactive)	> 100 µM (inactive)	> 100 µM (inactive)	–	> 100 µM (inactive)	> 100 µM (inactive)	–
CC(=O)NNC1=NN(C(C)=O)C2(S1)C(=O)Nc1ccc(C)cc12 (configuration not stated)	50 µM	> 100 µM (inactive)	> 100 µM (inactive)	48.3 µM (inactive)	> 100 µM (inactive)	57.7 µM (inactive)	78.9 µM (inactive)	38.3 µM (inactive)	> 100 µM (inactive)	–	26.4 µM (inactive)	> 100 µM (inactive)	83.6 µM (inactive)	> 100 µM (inactive)	73.6 µM (inactive)	84.1 µM (inactive)	32.4 µM (inactive)	34.2 µM (inactive)	78.3 µM (inactive)	38.5 µM (inactive)
